Reference: patent US20100062997A1, “USE OF IDRAPARINUX FOR EXTENDED PROPHYLAXIS OF THROMBOEMBOLISM” (SANOFI-AVENTIS, priority 2008, published 2010)

What was measured:
[1] = system: patients with confirmed, symptomatic DVT or PE treated for 6 months with a VKA or idraparinux; assay: Same study, principal safety outcome: major bleeding; type: in vivo
Procedure: (§1) A double-blind, placebo-controlled study evaluated patients who had completed 6 months of initial treatment for deep venous thrombosis (hereafter “DVT”) or pulmonary embolism (hereafter “PE”) and who were then randomly assigned to receive an additional 6 months of prophylaxis with idraparinux. The efficacy of this method of thromboprophylaxis was evaluated in these patients.
(§2) Patients received a once-weekly subcutaneous dose of 2.5 mg of idraparinux or placebo with an identical appearance for 6 months (26 injections). In patients who had received idraparinux before randomization, the first dose of idraparinux or placebo was given 6 to 8 days after the last injection of the drug. In patients who had received a VKA before randomization, the first dose was given when the international normalized ratio (INR) was 3.0 or less. For patients with a creatinine clearance of less than 30 ml/min., the weekly idraparinux dose was 1.5 mg, with a first dose of 2.5 mg in patients who had received a VKA before randomization.
The principal safety outcome was major bleeding. […]
Analysis of the primary safety outcome, the incidence of major bleeding at 6 months, was performed with the use of the Mantel-Haenszel test, stratified according to the previous treatment. The effect of initial, prerandomization treatment on efficacy and safety was also analyzed. […]

[2] = system: patients with confirmed, symptomatic DVT or PE treated for 6 months with a VKA or idraparinux; assay: Double-blind, placebo-controlled study of 6 months extended thromboprophylaxis: symptomatic recurrent VTE; type: in vivo
Procedure: as §1
Eligible patients were those aged above or equal to 18 years, with confirmed, symptomatic DVT or PE and who had been treated for 6 months with a VKA (acenocoumarol or warfarin), either in previous van Gogh studies (see The van Gogh Investigators, N. Engl. J. Med., 2007, 357, 1094-104) or outside these studies, or with idraparinux (in van Gogh studies).
The diagnostic criteria for DVT were a calf trifurcation or a more proximal vein that were noncompressible on ultrasonography or an intraluminal filling defect on venography. For PE, the diagnostic criteria were an intraluminal filling defect in subsegmental or more proximal pulmonary arteries on spiral computed tomography (CT) or conventional pulmonary angiography, a high-probability finding on a ventilation-perfusion lung scan, or a nondiagnostic finding on a lung scan with objectively documented DVT (H. R. Büller et al., Ann. Intern. Med., 2004, 140, 867-73; The Matisse Investigators, N. Engl. J. Med., 2003, 349, 1695-702).
Patients were ineligible if they met one or more of the following criteria: an indication to continue anticoagulant therapy for the index DVT or PE beyond 6 months, other indications for prophylaxis with a VKA, pregnancy or breast-feeding, a creatinine clearance of less than 10 ml per minute, severe hepatic disease, bacterial endocarditis, active bleeding or a high risk of bleeding, uncontrolled hypertension (systolic blood pressure above 180 mm Hg or diastolic blood pressure above 110 mm Hg), or a life expectancy of less than 3 months.
Patients were randomized, with stratification according to study center and to the anticoagulant treatment received in the 6 months before randomization (idraparinux within the van Gogh studies or VKA within or outside the van Gogh studies). Randomization was to be performed not more than 1 hour before the administration of the first dose of the study drug.
as §2
All patients were contacted after 1 week and at 3 and 6 months. […] At each contact, symptoms and signs of recurrent VTE were investigated.
All suspected outcome events were reviewed and classified by a central adjudication committee, whose members were unaware of study-group assignment.
The primary efficacy outcome was the incidence of symptomatic recurrence of VTE, defined as objectively documented recurrent PE, DVT or death attributed to PE. A diagnosis of recurrent VTE was accepted in the absence of an adequate objective test result if the investigator had treated the patient with therapeutic doses of heparin for more than 2 days or with a vena cava filter, thrombectomy or thrombolysis, or if recurrent VTE could not be ruled out. […]

[3] = idraparinux group, month 6 after randomization, counted in most severe category

CO[C@H]1O[C@H](COS(=O)(=O)O)[C@@H](O[C@@H]2O[C@@H](C(=O)O)[C@@H](O[C@H]3O[C@H](COS(=O)(=O)O)[C@@H](O[C@@H]4O[C@H](C(=O)O)[C@@H](O[C@H]5O[C@H](COS(=O)(=O)O)[C@@H](OC)[C@H](OC)[C@H]5OC)[C@H](OC)[C@H]4OC)[C@H](OS(=O)(=O)O)[C@H]3OS(=O)(=O)O)[C@H](OC)[C@H]2OC)[C@H](OS(=O)(=O)O)[C@H]1OS(=O)(=O)O [Idraparinux, idraparinux]
major hemorrhage ([1]; idraparinux group, 6 months of treatment, placebo 0%, P<0.001): 1.9%
major bleedings after discontinuation ([1]; placebo group, patients who first received idraparinux, 6 months): without major bleedings
symptomatic, objectively confirmed VTE (frequency of recurrent thromboembolism) ([2]; idraparinux group, 6 of 594 patients, during the 6 months of randomly assigned treatment): 1.0%
recurrent VTE ([2]; idraparinux group, 7 patients, further 6-month observation period after end of the additional 6 months of thromboprophylaxis, P=0.21 vs placebo): 1.2%
cumulative incidence of recurrent VTE (Kaplan-Meier) ([2]; idraparinux group, 1 year after randomization, P=0.002 vs placebo): 1.7%
Type of recurrent event: DVT only [2, 3]: 3 number of patients
Type of recurrent event: PE fatal [2, 3]: 2 number of patients
Type of recurrent event: PE non fatal [2, 3]: 1 number of patients
reduction in the relative risk of recurrent VTE ([2]; idraparinux vs placebo, 6 months, 95% CI 33.5 to 88.8, P=0.002): 72.7%
Recurrent VTE, Odds Ratio (95% CI) ([2]; idraparinux vs placebo, month 6 after randomization, all patients, adjusted according to treatment history, P 0.002): 0.27 (0.11-0.66)
Recurrent VTE, Odds Ratio (95% CI) ([2]; idraparinux vs placebo, treatment before randomization: VKA outside study, month 6, P 0.004): 0.09 (0.01-0.69)
Recurrent VTE, Odds Ratio (95% CI) ([2]; idraparinux vs placebo, treatment before randomization: VKA within study, month 6, P 0.02): 0.20 (0.04-0.92)
Recurrent VTE, Odds Ratio (95% CI) ([2]; idraparinux vs placebo, treatment received before randomization: VKA, month 6, P <0.001): 0.14 (0.04-0.48)
Recurrent VTE, Odds Ratio (95% CI) ([2]; idraparinux vs placebo, treatment received before randomization: idraparinux, month 6, P 0.68): 1.58 (0.26-9.55)
cumulative incidence of recurrent thromboembolism by treatment received before randomization (FIG. 1) ([2]; placebo group, entire year after randomization, 268 patients who had received idraparinux in the 6 months before randomization): lowest
frequency of recurrence (6-month recurrence rate) after discontinuation ([2]; placebo group, substance = treatment received for 6 months before randomization): less than 1%
